Laboratory results as given in the supplement of paper PMC10307832.

Experiments:
Experiment in all cases: relative viability (nuclei count vs DMSO), 5 days (fraction); higher = more cells survive
201T = tested on: 201T
Method in brief: (§1)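 Relative viability is defined as nuclei in treated wells over nuclei in vehicle wells. Duplicate plates were run and medians reported. Lung cancer cell lines in 1536-well plates were dosed by pin tool one day after seeding, with one drug or with a fixed anchor-drug dose plus five library-drug doses (not always all listed) in √10 steps, and nuclei were counted after 5 days.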

A-427 = tested on: A-427
Method in brief: as §1

BEN = tested on: BEN
Method in brief: as §1

COR-L23 = tested on: COR-L23
Method in brief: as §1

EKVX = tested on: EKVX
Method in brief: as §1

HARA = tested on: HARA
Method in brief: as §1

HCC-15 = tested on: HCC-15
Method in brief: as §1

HCC-44 = tested on: HCC-44
Method in brief: as §1

HCC-827 = tested on: HCC-827
Method in brief: as §1

NCI-H1437 = tested on: NCI-H1437
Method in brief: as §1

NCI-H1650 = tested on: NCI-H1650
Method in brief: as §1

NCI-H1666 = tested on: NCI-H1666
Method in brief: as §1

NCI-H1792 = tested on: NCI-H1792
Method in brief: as §1

NCI-H1975 = tested on: NCI-H1975
Method in brief: as §1

NCI-H2342 = tested on: NCI-H2342
Method in brief: as §1

NCI-H23 = tested on: NCI-H23
Method in brief: as §1

NCI-H358 = tested on: NCI-H358
Method in brief: as §1

NCI-H441 = tested on: NCI-H441
Method in brief: as §1

NCI-H596 = tested on: NCI-H596
Method in brief: as §1

NCI-H650 = tested on: NCI-H650
Method in brief: as §1

NCI-H838 = tested on: NCI-H838
Method in brief: as §1

SK-MES-1 = tested on: SK-MES-1
Method in brief: as §1

SW 900 = tested on: SW 900
Method in brief: as §1

O=c1cc(N2CCOCC2)oc2c(-c3cccc4c3sc3ccccc34)cccc12 + N=C(N)NC(=N)NCCc1ccccc1 [Phenformin] (partner 250 µM)
relative viability (201T; first compound 0.01 µM): 0.289 | relative viability (201T; first compound 0.03162 µM): 0.488 | relative viability (201T; first compound 0.1 µM): 0.469 | relative viability (201T; first compound 0.3162 µM): 0.441 | relative viability (201T; first compound 1 µM): 0.43 | relative viability (A-427; first compound 0.01 µM): 0.31 | relative viability (A-427; first compound 0.03162 µM): 0.294 | relative viability (A-427; first compound 0.1 µM): 0.315 | relative viability (A-427; first compound 0.3162 µM): 0.313 | relative viability (A-427; first compound 1 µM): 0.341 | relative viability (BEN; first compound 0.01 µM): 0.241 | relative viability (BEN; first compound 0.03162 µM): 0.305 | relative viability (BEN; first compound 0.1 µM): 0.27 | relative viability (BEN; first compound 0.3162 µM): 0.271 | relative viability (BEN; first compound 1 µM): 0.292 | relative viability (COR-L23; first compound 0.01 µM): 0.439 | relative viability (COR-L23; first compound 0.03162 µM): 0.466 | relative viability (COR-L23; first compound 0.1 µM): 0.43 | relative viability (COR-L23; first compound 0.3162 µM): 0.411 | relative viability (COR-L23; first compound 1 µM): 0.449 | relative viability (EKVX; first compound 0.01 µM): 0.228 | relative viability (EKVX; first compound 0.03162 µM): 0.238 | relative viability (EKVX; first compound 0.1 µM): 0.201 | relative viability (EKVX; first compound 0.3162 µM): 0.216 | relative viability (EKVX; first compound 1 µM): 0.199 | relative viability (HARA; first compound 0.01 µM): 0.414 | relative viability (HARA; first compound 0.03162 µM): 0.472 | relative viability (HARA; first compound 0.1 µM): 0.416 | relative viability (HARA; first compound 0.3162 µM): 0.502 | relative viability (HARA; first compound 1 µM): 0.482 | relative viability (HCC-15; first compound 0.01 µM): 0.47 | relative viability (HCC-15; first compound 0.03162 µM): 0.481 | relative viability (HCC-15; first compound 0.1 µM): 0.596 | relative viability (HCC-15; first compound 0.3162 µM): 0.481 | relative viability (HCC-15; first compound 1 µM): 0.498 | relative viability (HCC-44; first compound 0.01 µM): 0.249 | relative viability (HCC-44; first compound 0.03162 µM): 0.187 | relative viability (HCC-44; first compound 0.1 µM): 0.134 | relative viability (HCC-44; first compound 0.3162 µM): 0.366 | relative viability (HCC-44; first compound 1 µM): 0.139 | relative viability (HCC-827; first compound 0.01 µM): 0.368 | relative viability (HCC-827; first compound 0.03162 µM): 0.391 | relative viability (HCC-827; first compound 0.1 µM): 0.396 | relative viability (HCC-827; first compound 0.3162 µM): 0.405 | relative viability (HCC-827; first compound 1 µM): 0.402 | relative viability (NCI-H1437; first compound 0.01 µM): 0.32 | relative viability (NCI-H1437; first compound 0.03162 µM): 0.323 | relative viability (NCI-H1437; first compound 0.1 µM): 0.298 | relative viability (NCI-H1437; first compound 0.3162 µM): 0.338 | relative viability (NCI-H1437; first compound 1 µM): 0.282 | relative viability (NCI-H1650; first compound 0.01 µM): 0.352 | relative viability (NCI-H1650; first compound 0.03162 µM): 0.48 | relative viability (NCI-H1650; first compound 0.1 µM): 0.346 | relative viability (NCI-H1650; first compound 0.3162 µM): 0.449 | relative viability (NCI-H1650; first compound 1 µM): 0.362 | relative viability (NCI-H1666; first compound 0.01 µM): 0.566 | relative viability (NCI-H1666; first compound 0.03162 µM): 0.607 | relative viability (NCI-H1666; first compound 0.1 µM): 0.526 | relative viability (NCI-H1666; first compound 0.3162 µM): 0.54 | relative viability (NCI-H1666; first compound 1 µM): 0.584 | relative viability (NCI-H1792; first compound 0.01 µM): 0.26 | relative viability (NCI-H1792; first compound 0.03162 µM): 0.202 | relative viability (NCI-H1792; first compound 0.1 µM): 0.213 | relative viability (NCI-H1792; first compound 0.3162 µM): 0.32 | relative viability (NCI-H1792; first compound 1 µM): 0.184 | relative viability (NCI-H1975; first compound 0.01 µM): 0.414 | relative viability (NCI-H1975; first compound 0.03162 µM): 0.439 | relative viability (NCI-H1975; first compound 0.1 µM): 0.408 | relative viability (NCI-H1975; first compound 0.3162 µM): 0.397 | relative viability (NCI-H1975; first compound 1 µM): 0.418 | relative viability (NCI-H2342; first compound 0.01 µM): 0.575 | relative viability (NCI-H2342; first compound 0.03162 µM): 0.59 | relative viability (NCI-H2342; first compound 0.1 µM): 0.601 | relative viability (NCI-H2342; first compound 0.3162 µM): 0.621 | relative viability (NCI-H2342; first compound 1 µM): 0.576 | relative viability (NCI-H23; first compound 0.01 µM): 0.83 | relative viability (NCI-H23; first compound 0.03162 µM): 0.801 | relative viability (NCI-H23; first compound 0.3162 µM): 0.792 | relative viability (NCI-H23; first compound 1 µM): 0.806 | relative viability (NCI-H358; first compound 0.01 µM): 0.339 | relative viability (NCI-H358; first compound 0.03162 µM): 0.35 | relative viability (NCI-H358; first compound 0.1 µM): 0.351 | relative viability (NCI-H358; first compound 0.3162 µM): 0.325 | relative viability (NCI-H358; first compound 1 µM): 0.322 | relative viability (NCI-H441; first compound 0.01 µM): 0.862 | relative viability (NCI-H441; first compound 0.03162 µM): 0.805 | relative viability (NCI-H441; first compound 0.1 µM): 0.861 | relative viability (NCI-H441; first compound 0.3162 µM): 0.811 | relative viability (NCI-H441; first compound 1 µM): 0.771 | relative viability (NCI-H596; first compound 0.01 µM): 0.73 | relative viability (NCI-H596; first compound 0.03162 µM): 0.837 | relative viability (NCI-H596; first compound 0.1 µM): 0.717 | relative viability (NCI-H596; first compound 0.3162 µM): 0.743 | relative viability (NCI-H596; first compound 1 µM): 0.76 | relative viability (NCI-H650; first compound 0.03162 µM): 0.484 | relative viability (NCI-H650; first compound 0.1 µM): 0.302 | relative viability (NCI-H650; first compound 0.3162 µM): 0.511 | relative viability (NCI-H650; first compound 1 µM): 0.413 | relative viability (NCI-H838; first compound 0.01 µM): 0.473 | relative viability (NCI-H838; first compound 0.03162 µM): 0.547 | relative viability (NCI-H838; first compound 0.1 µM): 0.534 | relative viability (NCI-H838; first compound 0.3162 µM): 0.6 | relative viability (NCI-H838; first compound 1 µM): 0.543 | relative viability (SK-MES-1; first compound 0.01 µM): 0.652 | relative viability (SK-MES-1; first compound 0.03162 µM): 0.688 | relative viability (SK-MES-1; first compound 0.1 µM): 0.688 | relative viability (SK-MES-1; first compound 0.3162 µM): 0.671 | relative viability (SK-MES-1; first compound 1 µM): 0.668 | relative viability (SW 900; first compound 0.01 µM): 0.291 | relative viability (SW 900; first compound 0.03162 µM): 0.635 | relative viability (SW 900; first compound 0.1 µM): 0.485 | relative viability (SW 900; first compound 0.3162 µM): 0.551 | relative viability (SW 900; first compound 1 µM): 0.56
